Assay results published in patent publication US11078170B2 (Assembly Biosciences, Inc., priority 2017, dated 2021).
pEC50: −log10 of the molar value.

These molecules were tested on HBV viral production from HepAD38 cells (assay: Activity of test compounds on viral production from HepAD38 cells (viral load by qPCR of HBV core sequence in supernatant)). Conditions: Hepatitis B virus, 120 h, 5 days incubation, HBV DNA in supernatant by qPCR, top concentration 10 μM, read-out: Viral Load EC50 Activity range.
Format: cell-based
Method in brief: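 HepAD38 cells, 50,000/well in tetracycline-free 2% FBS medium, treated 5 days at 37° C. with compound from 10 μM top concentration. HBV DNA in supernatant quantified by TaqMan qPCR of core sequence against DNA standards, relative to DMSO wells; CellTiter-Glo viability read in parallel. EC50/CC50 from four-parameter logistic fit.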

| SMILES | pEC50 |
| --- | --- |
| CN1[C@@H](C(=O)Nc2ccc(F)c(Cl)c2)C[C@@H](c2cc(Cl)c(-c3cnn(C)c3)s2)NS1(=O)=O [HBV-CSU-302-ISO-II, Cis-N-(3-Chloro-4-fluorophenyl)-5-(4-chloro-5-(1-methyl-1H-pyrazol-4-yl)thiophen-2-yl)-2-methyl-1,2,6-thiadiazinane-3-carboxamide 1,1-dioxide] | < 5.30 |
| CN1C(C(=O)Nc2ccc(F)c(Cl)c2)CC(c2ccc(-c3ccc(C#N)c(F)c3)s2)NS1(=O)=O (racemic) [HBV-CSU-156, Cis-N-(3-chloro-4-fluorophenyl)-5-(5-(4-cyano-3-fluorophenyl)thiophen-2-yl)-2-methyl-1,2,6-thiadiazinane-3-carboxamide 1,1-dioxide] | > 6.00 |
| CN1[C@@H](C(=O)Nc2ccc(F)c(Cl)c2)C[C@H](c2ccc(-c3cn(C)cn3)s2)NS1(=O)=O [HBV-CSU-266-Trans-ISO-I, (3R,5R)-N-(3-chloro-4-fluorophenyl)-2-methyl-5-(5-(1-methyl-1H-imidazol-4-yl)thiophen-2-yl)-1,2,6-thiadiazinane-3-carboxamide 1,1-dioxide] | > 6.00 |
| CN1[C@H](C(=O)Nc2ccc(F)c(Cl)c2)C[C@H](c2ccccn2)NS1(=O)=O [HBV-CSU-031-ISO-I, Cis-N-(3-Chloro-4-fluorophenyl)-2-methyl-5-(pyridin-2-yl)-1,2,6-thiadiazinane-3-carboxamide 1,1-dioxide] | > 6.00 |
| CN1[C@H](C(=O)Nc2ccc(F)c(Cl)c2)C[C@H](c2cc(Br)cs2)NS1(=O)=O [HBV-CSU-146-ISO-I, 5-(4-Bromothiophen-2-yl)-N-(3-chloro-4-fluorophenyl)-2-methyl-1,2,6-thiadiazinane-3-carboxamide 1,1-dioxide] | > 6.00 |
| CN1[C@H](C(=O)Nc2ccc(F)c(Cl)c2)C[C@H](c2cc(-c3ncnn3C)cs2)NS1(=O)=O [HBV-CSU-327-ISO-I, Cis-N-(3-Chloro-4-fluorophenyl)-2-methyl-5-(4-(1-methyl-1H-1,2,4-triazol-5-yl)thiophen-2-yl)-1,2,6-thiadiazinane-3-carboxamide 1,1-dioxide] | > 6.00 |
| CN1[C@@H](C(=O)Nc2ccc(F)c(Cl)c2)C[C@@H](c2cc(-c3ccccn3)cs2)NS1(=O)=O [HBV-CSU-168-ISO-I, Cis-N-(3-chloro-4-fluorophenyl)-2-methyl-5-(4-(pyridin-2-yl)thiophen-2-yl)-1,2,6-thiadiazinane-3-carboxamide 1,1-dioxide] | 5.30 to 6.00 |
| CN(C)CCN1[C@@H](c2cccs2)C[C@@H](C(=O)Nc2ccc(F)c(Cl)c2)N(C)S1(=O)=O (relative stereo) [HBV-CSU-043-ISO-I, Cis-N-(3-chloro-4-fluorophenyl)-6-(2-(dimethylamino)ethyl)-2-methyl-5-(thiophen-2-yl)-1,2,6-thiadiazinane-3-carboxamide 1,1-dioxide] | < 5.30 |
| COCCN1C(C(=O)Nc2ccc(F)c(Cl)c2)CC(c2ccc(F)cc2)NS1(=O)=O (racemic) [HBV-CSU-210, Cis-N-(3-Chloro-4-fluorophenyl)-5-(4-fluorophenyl)-2-(2-methoxyethyl)-1,2,6-thiadiazinane-3-carboxamide 1,1-dioxide] | > 6.00 |
| CN1[C@@H](C(=O)Nc2ccc(F)c(Cl)c2)C[C@@H](c2ccc3c(c2)ncn3C)NS1(=O)=O (relative stereo) [HBV-CSU-360-ISO-II, Cis-N-(3-chloro-4-fluorophenyl)-2-methyl-5-(1-methyl-1H-benzo[d]imidazol-5-yl)-1,2,6-thiadiazinane-3-carboxamide 1,1-dioxide] | > 6.00 |
| CN1C(C(=O)Nc2ccc(F)c(Cl)c2)CC(c2cccc(OC(F)(F)F)c2)NS1(=O)=O (racemic) [HBV-CSU-262, Cis-N-(3-Chloro-4-fluorophenyl)-2-methyl-5-(3-(trifluoromethoxy)phenyl)-1,2,6-thiadiazinane-3-carboxamide 1,1-dioxide] | > 6.00 |
| CN1C(C(=O)Nc2ccc(F)c(Cl)c2)CC(c2cc(-c3nncn3C)cs2)NS1(=O)=O (racemic) [HBV-CSU-328, Cis-N-(3-chloro-4-fluorophenyl)-2-methyl-5-(4-(4-methyl-4H-1,2,4-triazol-3-yl)thiophen-2-yl)-1,2,6-thiadiazinane-3-carboxamide 1,1-dioxide] | > 6.00 |
| CN1[C@H](C(=O)Nc2ccc(F)c(Cl)c2)C[C@H](c2ccc(Cc3ccccc3)s2)NS1(=O)=O [HBV-CSU-117-ISO-I, Cis-(5-benzylthiophen-2-yl)-N-(3-chloro-4-fluorophenyl)-2-methyl-1,2,6-thiadiazinane-3-carboxamide 1,1-dioxide] | > 6.00 |
| CN1[C@@H](C(=O)Nc2ccc(F)c(Cl)c2)C[C@@H](c2ccc(-c3ncn(C)n3)s2)NS1(=O)=O [HBV-CSU-322-ISO-II, Cis-N-(3-Chloro-4-fluorophenyl)-2-methyl-5-(5-(1-methyl-1H-1,2,4-triazol-3-yl)thiophen-2-yl)-1,2,6-thiadiazinane-3-carboxamide 1,1-dioxide] | < 5.30 |
| CN1[C@@H](C(=O)Nc2ccc(F)c(Cl)c2)C[C@@H](c2ncc(-c3ccc(Br)c(F)c3)s2)NS1(=O)=O [HBV-CSU-173-ISO-II, Cis-5-(5-(4-Bromo-3-fluorophenyl)thiazol-2-yl)-N-(3-chloro-4-fluorophenyl)-2-methyl-1,2,6-thiadiazinane-3-carboxamide 1,1-dioxide] | < 5.30 |
| Cc1nn(C)c(C)c1-c1csc([C@H]2C[C@@H](C(=O)Nc3ccc(F)c(Cl)c3)N(C)S(=O)(=O)N2)c1 [HBV-CSU-317-ISO-I, Cis-N-(3-chloro-4-fluorophenyl)-2-methyl-5-(4-(1,3,5-trimethyl-1H-pyrazol-4-yl)thiophen-2-yl)-1,2,6-thiadiazinane-3-carboxamide 1,1-dioxide] | > 6.00 |
| [2H]C([2H])([2H])N1C(C(=O)Nc2ccc(F)c(Cl)c2)CC(c2ccc(Br)s2)NS1(=O)=O (racemic) [HBV-CSU-370, Cis-5-(5-bromothiophen-2-yl)-N-(3-chloro-4-fluorophenyl)-2-(methyl-d3)-1,2,6-thiadiazinane-3-carboxamide 1,1-dioxide] | > 6.00 |
| CN1[C@@H](C(=O)Nc2ccc(F)c(Cl)c2)C[C@@H](c2cc(-c3ccc(C(F)(F)F)nc3)cs2)NS1(=O)=O [HBV-CSU-166-ISO-II, Cis-N-(3-chloro-4-fluorophenyl)-2-methyl-5-(4-(6-(trifluoromethyl)pyridin-3-yl)thiophen-2-yl)-1,2,6-thiadiazinane-3-carboxamide 1,1-dioxide] | < 5.30 |
| CN1[C@H](C(=O)Nc2ccc(F)c(Cl)c2)C[C@H](c2ccc(F)cc2)NS1(=O)=O [HBV-CSU-112-ISO-I, Cis-N-(3-Chloro-4-fluorophenyl)-5-(4-fluorophenyl)-2-methyl-1,2,6-thiadiazinane-3-carboxamide 1,1-dioxide] | > 6.00 |
| CN1C(C(=O)Nc2ccc(F)c(Cl)c2)CC(c2ccc(-c3ncnn3C)s2)NS1(=O)=O (racemic) [HBV-CSU-323, Cis-N-(3-Chloro-4-fluorophenyl)-2-methyl-5-(5-(1-methyl-1H-1,2,4-triazol-5-yl)thiophen-2-yl)-1,2,6-thiadiazinane-3-carboxamide 1,1-dioxide] | > 6.00 |
| CN1[C@@H](C(=O)Nc2ccc(F)c(Cl)c2)C[C@@H](c2ncc(-c3cn[nH]c3)s2)NS1(=O)=O [HBV-CSU-254-ISO-II, Cis-5-(5-(1H-pyrazol-4-yl)thiazol-2-yl)-N-(3-chloro-4-fluorophenyl)-2-methyl-1,2,6-thiadiazinane-3-carboxamide 1,1-dioxide] | 5.30 to 6.00 |
| O=C(Nc1ccc(F)c(Cl)c1)C1CC(c2nccs2)NS(=O)(=O)N1 (stereo not drawn) [HBV-CSU-096, Cis-N-(3-Chloro-4-fluorophenyl)-5-(thiazol-2-yl)-1,2,6-thiadiazinane-3-carboxamide 1,1-dioxide] | 5.30 to 6.00 |
| O=C(Nc1ccc(F)c(Cl)c1)[C@@H]1C[C@H](c2nccs2)NS(=O)(=O)N1CCO (relative stereo) [HBV-CSU-097-ISO-II, Cis-N-(3-Chloro-4-fluorophenyl)-2-(2-hydroxyethyl)-5-(thiazol-2-yl)-1,2,6-thiadiazinane-3-carboxamide 1,1-dioxide] | < 5.30 |
| CN1C(C(=O)Nc2ccc(F)c(Cl)c2)CC(c2nc3ccccc3s2)NS1(=O)=O (racemic) [HBV-CSU-364, Cis-5-(benzo[d]thiazol-2-yl)-N-(3-chloro-4-fluorophenyl)-2-methyl-1,2,6-thiadiazinane-3-carboxamide 1,1-dioxide] | > 6.00 |
| CN1[C@H](C(=O)Nc2ccc(F)c(Cl)c2)C[C@H](c2ncc(-c3ccccc3)s2)NS1(=O)=O | > 6.00 |
| CN1[C@@H](C(=O)Nc2ccc(F)c(Cl)c2)C[C@@H](c2ccc(-c3ccn(C)n3)s2)NS1(=O)=O [HBV-CSU-270-ISO-II, Cis-N-(3-Chloro-4-fluorophenyl)-2-methyl-5-(5-(1-methyl-1H-pyrazol-3-yl)thiophen-2-yl)-1,2,6-thiadiazinane-3-carboxamide 1,1-dioxide] | 5.30 to 6.00 |
| CN1[C@H](C(=O)Nc2ccc(F)c(Cl)c2)C[C@H](c2ccsn2)NS1(=O)=O [HBV-CSU-056-ISO-I, Cis-N-(3-chloro-4-fluorophenyl)-5-(isothiazol-3-yl)-2-methyl-1,2,6-thiadiazinane-3-carboxamide 1,1-dioxide] | > 6.00 |
| CN1[C@H](C(=O)Nc2ccc(F)c(Cl)c2)C[C@H](c2ncc(-c3ccn(C)n3)s2)NS1(=O)=O (stereo in doubt) [HBV-CSU-280-ISO-I, Cis-N-(3-Chloro-4-fluorophenyl)-2-methyl-5-(5-(1-methyl-1H-pyrazol-3-yl)thiazol-2-yl)-1,2,6-thiadiazinane-3-carboxamide 1,1-dioxide] | 5.30 to 6.00 |
| CSCCN1[C@H](C(=O)Nc2ccc(F)c(Cl)c2)C[C@H](c2nccs2)NS1(=O)=O [HBV-CSU-109-ISO-II, Cis-N-(3-Chloro-4-fluorophenyl)-2-(2-(methylthio)ethyl)-5-(thiazol-2-yl)-1,2,6-thiadiazinane-3-carboxamide 1,1-dioxide] | > 6.00 |
